From publication PMC5609037, “Selective inhibition of PfA-M1, over PfA-M17, by an amino-benzosuberone derivative blocks malaria parasites development in vitro and in vivo” (Malaria Journal, 2017) come the findings set out here.

pKi: −log10 of the molar value.

As usually defined, the pKi is the Ki on a negative log10 scale, so that one unit is a factor of ten. Low values mean a large Ki, high ones a small Ki.

Assay [1] has as its target T1, PfA-M17 (P. falciparum leucyl aminopeptidase) (Plasmodium falciparum, UniProt Q8IL11).
T1 construct: gene LAP; residues 84–605, N-terminal hexahistidine tag, recombinant from E. coli
The assay can be described thus: Leu-pNA hydrolysis at […] nm, Ki by Dixon plots. It is filed as biochemical.

Assay [2] deals with T2, PfA-M1 (P. falciparum alanyl aminopeptidase, M1 family aminopeptidase) (Plasmodium falciparum, UniProt O96935).
T2 construct: gene M1AAP; residues 192–1085, N-terminal hexahistidine tag, recombinant from E. coli
In words: Ala-pNA hydrolysis at […] nm, Ki by Dixon plots. It is filed as biochemical.

T1 sequence (Q8IL11 84-605): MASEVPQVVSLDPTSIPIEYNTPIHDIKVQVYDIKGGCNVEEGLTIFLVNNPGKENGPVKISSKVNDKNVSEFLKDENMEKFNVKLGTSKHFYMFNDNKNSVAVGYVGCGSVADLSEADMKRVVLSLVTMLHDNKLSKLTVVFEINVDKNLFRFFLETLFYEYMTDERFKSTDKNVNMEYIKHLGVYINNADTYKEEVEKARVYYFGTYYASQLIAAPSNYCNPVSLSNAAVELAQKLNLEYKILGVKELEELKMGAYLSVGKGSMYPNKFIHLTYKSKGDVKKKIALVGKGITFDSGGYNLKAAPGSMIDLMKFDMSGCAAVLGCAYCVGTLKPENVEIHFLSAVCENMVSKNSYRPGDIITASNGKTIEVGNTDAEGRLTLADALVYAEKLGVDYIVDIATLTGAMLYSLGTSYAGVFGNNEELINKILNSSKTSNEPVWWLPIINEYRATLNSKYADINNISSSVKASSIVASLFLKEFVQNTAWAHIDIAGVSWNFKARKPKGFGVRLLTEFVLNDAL
T2 sequence (O96935 192-1085): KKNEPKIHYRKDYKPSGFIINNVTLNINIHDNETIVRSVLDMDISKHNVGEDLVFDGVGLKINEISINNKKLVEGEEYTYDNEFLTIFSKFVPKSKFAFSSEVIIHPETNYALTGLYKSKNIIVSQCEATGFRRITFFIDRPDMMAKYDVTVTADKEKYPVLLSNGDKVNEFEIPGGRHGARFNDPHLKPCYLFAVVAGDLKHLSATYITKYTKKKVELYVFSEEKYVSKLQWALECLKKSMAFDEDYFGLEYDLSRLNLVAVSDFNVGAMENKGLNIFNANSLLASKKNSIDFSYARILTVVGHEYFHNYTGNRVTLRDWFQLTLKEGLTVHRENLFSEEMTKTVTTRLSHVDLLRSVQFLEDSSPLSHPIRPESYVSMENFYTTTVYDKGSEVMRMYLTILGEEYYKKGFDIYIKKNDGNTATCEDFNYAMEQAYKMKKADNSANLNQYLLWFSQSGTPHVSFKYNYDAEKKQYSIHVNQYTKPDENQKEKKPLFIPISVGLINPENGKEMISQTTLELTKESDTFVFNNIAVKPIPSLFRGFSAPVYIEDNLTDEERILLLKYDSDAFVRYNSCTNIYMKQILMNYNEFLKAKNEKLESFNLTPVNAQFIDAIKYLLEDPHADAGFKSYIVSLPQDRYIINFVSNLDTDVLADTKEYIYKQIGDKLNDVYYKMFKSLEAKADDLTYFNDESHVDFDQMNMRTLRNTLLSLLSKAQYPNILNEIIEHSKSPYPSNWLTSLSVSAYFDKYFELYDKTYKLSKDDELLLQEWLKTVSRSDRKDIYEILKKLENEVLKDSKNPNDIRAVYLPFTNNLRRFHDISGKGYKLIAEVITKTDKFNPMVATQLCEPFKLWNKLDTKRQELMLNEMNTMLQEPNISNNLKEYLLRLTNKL

In the case of `CC(C)C[C@H](NC(=O)[C@@H](O)[C@H](N)Cc1ccccc1)C(=O)O` [bestatin], the results for the pKi in assay [1] and in assay [2] were 6.40 and 7.00, respectively.
